From patent US11446287B2, “Compounds and methods for EP300 or CBP modulation and indications therefor” (Opna Immuno-Oncology SA, priority 2019, dated 2022) come the findings set out here.

pIC50: −log10 of the molar value.

What is called pIC50 is the negative decadic logarithm of the IC50, by convention in mol/L.

For the assay, the target named is T1, Recombinant human BRD4 containing dual bromodomains (BRD4-BD12 (1-477)) (Homo sapiens, UniProt O60885).
T1 construct: Recombinant human BRD4 containing dual bromodomains (BRD4-BD12 (1-477)); made in house; host or cells: E. coli BL21-CodonPlus (DE3), modified pET vector
The assay can be described thus: BRD4 Alphascreen binding assay. A digest of the protocol: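 AlphaScreen proximity between Ni-chelate-bound BRD4-BD12 (1-477) and streptavidin-captured H4 K5/K8/K12/K16-acetyl peptide measured after 1 h room-temperature compound incubation and 30 min with 7.5 μg/ml beads. Buffer: 50 mM HEPES pH 7.5, 50 mM NaCl, 0.01% BSA, 0.01% Triton X-100; data plate-normalized and four-parameter fit for IC50.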
Turning to `CCOc1cc(C(=O)O)c(F)cc1-c1cn(-c2ccc(F)cc2F)c2ncc(-c3c(C)noc3C)cc12` [P-0330, 4-(1-(2,4-difluorophenyl)-5-(3,5-dimethylisoxazol-4-yl)-1H-pyrrolo[2,3-b]pyridin-3-yl)-5-ethoxy-2-fluorobenzoic acid], the negative-log IC50 (pIC50) was 5.10 to 6.00.

As to `Cc1noc(C)c1-c1cnc2c(c1)c(-c1c(Cl)cc(C(=O)O)cc1OCC(F)F)cn2-c1cnc(N2CCC2)nc1` [P-0331, 4-(1-(2-(azetidin-1-yl)pyrimidin-5-yl)-5-(3,5-dimethylisoxazol-4-yl)-1H-pyrrolo[2,3-b]pyridin-3-yl)-3-chloro-5-(2,2-difluoroethoxy)benzoic acid], the pIC50 was 6.00 to 10.00.

For the compound `Cc1noc(C)c1-c1cnc2c(c1)c(-c1c(Cl)cc(C(=O)O)cc1OCC(F)F)cn2-c1ccccc1` [P-0332, 3-chloro-5-(2,2-difluoroethoxy)-4-(5-(3,5-dimethylisoxazol-4-yl)-1-phenyl-1H-pyrrolo[2,3-b]pyridin-3-yl)benzoic acid], the pIC50 is 5.10 to 6.00.

As to `Cc1noc(C)c1-c1cnc2c(c1)c(-c1c(Cl)cc(C(=O)O)cc1OCC(F)F)cn2[C@H]1CCOC1` [P-0333, (S)-3-chloro-5-(2,2-difluoroethoxy)-4-(5-(3,5-dimethylisoxazol-4-yl)-1-(tetrahydrofuran-3-yl)-1H-pyrrolo[2,3-b]pyridin-3-yl)benzoic acid], the pIC50 is 3.00 to 5.10.

For `Cc1noc(C)c1-c1cnc2c(c1)c(-c1ccc(C(=O)O)cc1OC1CCC1)cn2-c1ncccc1C#N` [P-0334, 4-(1-(3-cyanopyridin-2-yl)-5-(3,5-dimethylisoxazol-4-yl)-1H-pyrrolo[2,3-b]pyridin-3-yl)-3-cyclobutoxybenzoic acid], the pIC50 is 3.00 to 5.10.

Regarding `Cc1noc(C)c1-c1cnc2c(c1)c(-c1ccc(C(=O)O)cc1OC(F)(F)F)cn2C1(CC#N)CCC1` [P-0335, 4-(1-(1-(cyanomethyl)cyclobutyl)-5-(3,5-dimethylisoxazol-4-yl)-1H-pyrrolo[2,3-b]pyridin-3-yl)-3-(trifluoromethoxy)benzoic acid], the pIC50 is 3.00 to 5.10.

Consider `Cc1noc(C)c1-c1cnc2c(c1)c(-c1ccc(C(=O)O)cc1OC(C)C)cn2-c1ncccc1C#N` [P-0336, 4-(1-(3-cyanopyridin-2-yl)-5-(3,5-dimethylisoxazol-4-yl)-1H-pyrrolo[2,3-b]pyridin-3-yl)-3-isopropoxybenzoic acid], for which the negative logarithm of the IC50 (pIC50) was 3.00 to 5.10.

For the compound `Cc1noc(C)c1-c1cnc2c(c1)c(-c1ccc(C(=O)O)cc1OC1CC1)cn2-c1ncccc1C#N` [P-0337, 4-(1-(3-cyanopyridin-2-yl)-5-(3,5-dimethylisoxazol-4-yl)-1H-pyrrolo[2,3-b]pyridin-3-yl)-3-cyclopropoxybenzoic acid], the pIC50 was 3.00 to 5.10.

Turning to `Cc1noc(C)c1-c1cnc2c(c1)c(-c1ccc(C(=O)O)cc1OCC(F)F)cn2C(C1CC1)C1CC1` [P-0338, 4-(1-(dicyclopropylmethyl)-5-(3,5-dimethylisoxazol-4-yl)-1H-pyrrolo[2,3-b]pyridin-3-yl)-3-(2,2-difluoroethoxy)benzoic acid], the pIC50 is 3.00 to 5.10.

For `COc1cc(C(=O)O)ncc1-c1cn(C(C2CC2)C2CC2)c2ncc(-c3c(C)noc3C)cc12` [P-0339, 5-(1-(dicyclopropylmethyl)-5-(3,5-dimethylisoxazol-4-yl)-1H-pyrrolo[2,3-b]pyridin-3-yl)-4-methoxypicolinic acid], the pIC50 is 5.10 to 6.00.

`Cc1noc(C)c1-c1cnc2c(c1)c(-c1c(Cl)cc(C(=O)O)cc1OCC(F)F)cn2C(C1CC1)C1CC1` [P-0340, 3-chloro-4-(1-(dicyclopropylmethyl)-5-(3,5-dimethylisoxazol-4-yl)-1H-pyrrolo[2,3-b]pyridin-3-yl)-5-(2,2-difluoroethoxy)benzoic acid]: the pIC50 was 3.00 to 5.10.

Turning to `Cc1noc(C)c1-c1cnc2c(c1)c(-c1ccc(C(=O)O)cc1OC1CCC1)cn2C1CCOCC1` [P-0341, 3-cyclobutoxy-4-(5-(3,5-dimethylisoxazol-4-yl)-1-(tetrahydro-2H-pyran-4-yl)-1H-pyrrolo[2,3-b]pyridin-3-yl)benzoic acid], the pIC50 was 3.00 to 5.10.

On to `Cc1noc(C)c1-c1cnc2c(c1)c(-c1ccc(C(=O)O)cc1OC(C)C)c(C)n2C(C1CC1)C1CC1` [P-0342, 4-(1-(dicyclopropylmethyl)-5-(3,5-dimethylisoxazol-4-yl)-2-methyl-1H-pyrrolo[2,3-b]pyridin-3-yl)-3-isopropoxybenzoic acid], for which the pIC50 was 3.00 to 5.10.

`Cc1noc(C)c1-c1cnc2c(c1)c(-c1ccc(C(=O)O)cc1OC(F)(F)F)c(C)n2C(C1CC1)C1CC1` [P-0343, 4-(1-(dicyclopropylmethyl)-5-(3,5-dimethylisoxazol-4-yl)-2-methyl-1H-pyrrolo[2,3-b]pyridin-3-yl)-3-(trifluoromethoxy)benzoic acid]: the pIC50 was 3.00 to 5.10.

Turning to `Cc1noc(C)c1-c1ccc2c(c1)c(-c1ccc(C(=O)O)cc1OC(F)(F)F)cn2C(C1CC1)C1CC1` [P-0344, 4-(1-(dicyclopropylmethyl)-5-(3,5-dimethylisoxazol-4-yl)-1H-indol-3-yl)-3-(trifluoromethoxy)benzoic acid], the pIC50 is 3.00 to 5.10.

As for `Cc1noc(C)c1-c1cnc2c(c1)c(-c1ccc(C(=O)O)cc1OC(F)(F)F)c(C)n2-c1ncccc1C#N` [P-0345, 4-(1-(3-cyanopyridin-2-yl)-5-(3,5-dimethylisoxazol-4-yl)-2-methyl-1H-pyrrolo[2,3-b]pyridin-3-yl)-3-(trifluoromethoxy)benzoic acid], the pIC50 is 3.00 to 5.10.

In the case of `Cc1noc(C)c1-c1cnc2c(c1)c(-c1c(Cl)cc(C(=O)O)cc1OC(F)(F)F)cn2[C@H]1CCOC1` [P-0346, (S)-3-chloro-4-(5-(3,5-dimethylisoxazol-4-yl)-1-(tetrahydrofuran-3-yl)-1H-pyrrolo[2,3-b]pyridin-3-yl)-5-(trifluoromethoxy)benzoic acid], the pIC50 is 3.00 to 5.10.

Take `Cc1noc(C)c1-c1cnc2c(c1)c(-c1ccc(C(=O)O)cc1OC1CCC1)cn2-c1cnc(N2CCC2)nc1` [P-0347, 4-(1-(2-(azetidin-1-yl)pyrimidin-5-yl)-5-(3,5-dimethylisoxazol-4-yl)-1H-pyrrolo[2,3-b]pyridin-3-yl)-3-cyclobutoxybenzoic acid]: the pIC50 is 3.00 to 5.10.

`Cc1noc(C)c1-c1cnc2c(c1)c(-c1c(F)cc(C(=O)O)cc1OCC(F)F)cn2-c1cnc(N2CCC2)nc1` [P-0348, 4-(1-(2-(azetidin-1-yl)pyrimidin-5-yl)-5-(3,5-dimethylisoxazol-4-yl)-1H-pyrrolo[2,3-b]pyridin-3-yl)-3-(2,2-difluoroethoxy)-5-fluorobenzoic acid]: the pIC50 was 3.00 to 5.10.

In the case of `Cc1nn(C(F)F)cc1-n1cc(-c2ccc(C(=O)O)cc2OCC(F)F)c2cc(-c3c(C)noc3C)cnc21` [P-0349, 3-(2,2-difluoroethoxy)-4-(1-(1-(difluoromethyl)-3-methyl-1H-pyrazol-4-yl)-5-(3,5-dimethylisoxazol-4-yl)-1H-pyrrolo[2,3-b]pyridin-3-yl)benzoic acid], the pIC50 was 3.00 to 5.10.

Turning to `Cc1noc(C)c1-c1cnc2c(c1)c(-c1ccc(C(=O)O)cc1OC1CCC1)cn2[C@H]1CCOC1` [P-0350, (S)-3-cyclobutoxy-4-(5-(3,5-dimethylisoxazol-4-yl)-1-(tetrahydrofuran-3-yl)-1H-pyrrolo[2,3-b]pyridin-3-yl)benzoic acid], the pIC50 is 3.00 to 5.10.

Regarding `Cc1nn(C(F)F)cc1-n1cc(-c2ccc(C(=O)O)cc2OC2CCC2)c2cc(-c3c(C)noc3C)cnc21` [P-0351, 3-cyclobutoxy-4-(1-(1-(difluoromethyl)-3-methyl-1H-pyrazol-4-yl)-5-(3,5-dimethylisoxazol-4-yl)-1H-pyrrolo[2,3-b]pyridin-3-yl)benzoic acid], the pIC50 is 3.00 to 5.10.

Consider `Cc1noc(C)c1-c1cnc2c(c1)c(-c1c(Cl)cc(C(=O)O)cc1OCC(F)F)cn2-c1cnn(C(F)F)c1C` [P-0352, 3-chloro-5-(2,2-difluoroethoxy)-4-(1-(1-(difluoromethyl)-5-methyl-1H-pyrazol-4-yl)-5-(3,5-dimethylisoxazol-4-yl)-1H-pyrrolo[2,3-b]pyridin-3-yl)benzoic acid], for which the pIC50 was 5.10 to 6.00.

Take `Cc1noc(C)c1-c1cnc2c(c1)c(-c1ccc(C(=O)O)cc1OC1CCC1)cn2-c1cnn(C(F)F)c1C` [P-0353, 3-cyclobutoxy-4-(1-(1-(difluoromethyl)-5-methyl-1H-pyrazol-4-yl)-5-(3,5-dimethylisoxazol-4-yl)-1H-pyrrolo[2,3-b]pyridin-3-yl)benzoic acid]: the pIC50 was 3.00 to 5.10.

With `Cc1noc(C)c1-c1cnc2c(c1)c(-c1ccc(C(=O)O)cc1OC(C)C)cn2-c1cnn(C(F)F)c1C` [P-0354, 4-(1-(1-(difluoromethyl)-5-methyl-1H-pyrazol-4-yl)-5-(3,5-dimethylisoxazol-4-yl)-1H-pyrrolo[2,3-b]pyridin-3-yl)-3-isopropoxybenzoic acid], the pIC50 was 3.00 to 5.10.

Consider `Cc1noc(C)c1-c1cnc2c(c1)c(-c1c(Cl)cc(C(=O)O)cc1OC(F)(F)F)cn2C1CCOCC1` [P-0355, 3-chloro-4-(5-(3,5-dimethylisoxazol-4-yl)-1-(tetrahydro-2H-pyran-4-yl)-1H-pyrrolo[2,3-b]pyridin-3-yl)-5-(trifluoromethoxy)benzoic acid], for which the pIC50 is 5.10 to 6.00.

Consider `Cc1noc(C)c1-c1cnc2c(c1)c(-c1c(Cl)cc(C(=O)O)cc1OC1CCC1)cn2C(C1CC1)C1CC1` [P-0356, 3-chloro-5-cyclobutoxy-4-(1-(dicyclopropylmethyl)-5-(3,5-dimethylisoxazol-4-yl)-1H-pyrrolo[2,3-b]pyridin-3-yl)benzoic acid], for which the pIC50 is 5.10 to 6.00.

Consider `Cc1noc(C)c1-c1cnc2c(c1)c(-c1ccc(C(=O)O)cc1OC(C)C)cn2C1CCOCC1` [P-0357, 4-(5-(3,5-dimethylisoxazol-4-yl)-1-(tetrahydro-2H-pyran-4-yl)-1H-pyrrolo[2,3-b]pyridin-3-yl)-3-isopropoxybenzoic acid], for which the pIC50 is 3.00 to 5.10.
